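Compound exposure: 48 hours, 5 concentrations, 96-well plates. TGI denotes the concentration required for complete inhibition of growth.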
What was measured:
Assay in all cases: growth of human tumour cells (NCI), 48 h
786-0 renal = system: 786-0 renal
A498 renal = system: A498 renal
A549 NSCLC = system: A549 NSCLC
ACHN renal = system: ACHN renal
BT-549 breast = system: BT-549 breast
CAKI-1 renal = system: CAKI-1 renal
CCRF-CEM leukemia = system: CCRF-CEM leukemia
COLO 205 colon = system: COLO 205 colon
DU-145 prostate = system: DU-145 prostate
EKVX NSCLC = system: EKVX NSCLC
HCC-2998 colon = system: HCC-2998 colon
HCT-116 colon = system: HCT-116 colon
HCT-15 colon = system: HCT-15 colon
HL-60(TB) leukemia = system: HL-60(TB) leukemia
HOP-62 NSCLC = system: HOP-62 NSCLC
HS 578T breast = system: HS 578T breast
HT29 colon = system: HT29 colon
IGROV1 ovarian = system: IGROV1 ovarian
K-562 leukemia = system: K-562 leukemia
KM12 colon = system: KM12 colon
LOX IMVI melanoma = system: LOX IMVI melanoma
M14 melanoma = system: M14 melanoma
MALME-3M melanoma = system: MALME-3M melanoma
MCF7 breast = system: MCF7 breast
MDA-MB-231 breast = system: MDA-MB-231 breast
MDA-MB-435 = system: MDA-MB-435
MDA-N = system: MDA-N
MOLT-4 leukemia = system: MOLT-4 leukemia
NCI-H226 lung = system: NCI-H226 lung
NCI-H23 lung = system: NCI-H23 lung
NCI-H460 lung = system: NCI-H460 lung
NCI-H522 lung = system: NCI-H522 lung
OVCAR-8 ovarian = system: OVCAR-8 ovarian
PC-3 prostate = system: PC-3 prostate
RPMI-8226 leukemia = system: RPMI-8226 leukemia
SF-268 CNS = system: SF-268 CNS
SF-295 CNS = system: SF-295 CNS
SF-539 CNS = system: SF-539 CNS
SK-MEL-28 melanoma = system: SK-MEL-28 melanoma
SK-MEL-5 melanoma = system: SK-MEL-5 melanoma
SK-OV-3 ovarian = system: SK-OV-3 ovarian
SN12C renal = system: SN12C renal
SNB-19 CNS = system: SNB-19 CNS
SNB-75 CNS = system: SNB-75 CNS
SR leukemia = system: SR leukemia
SW-620 colon = system: SW-620 colon
T-47D breast = system: T-47D breast
TK-10 renal = system: TK-10 renal
UACC-257 melanoma = system: UACC-257 melanoma
UACC-62 melanoma = system: UACC-62 melanoma
UO-31 renal = system: UO-31 renal
HOP-92 NSCLC = system: HOP-92 NSCLC
NCI/ADR-RES ovarian = system: NCI/ADR-RES ovarian
OVCAR-3 ovarian = system: OVCAR-3 ovarian
OVCAR-4 ovarian = system: OVCAR-4 ovarian
OVCAR-5 ovarian = system: OVCAR-5 ovarian
SK-MEL-2 melanoma = system: SK-MEL-2 melanoma
U251 CNS = system: U251 CNS

Measured: TGI

Cc1nn(C(=O)Cc2ccccc2)c2c1C(c1ccccc1[N+](=O)[O-])SC(N)=N2 (stereo not drawn)
not listed: HOP-92 NSCLC | NCI/ADR-RES ovarian | OVCAR-3 ovarian | OVCAR-4 ovarian | OVCAR-5 ovarian | SK-MEL-2 melanoma | U251 CNS
> 100 µM: all other assays above

COc1cccc(C[C@H]2COC(=O)[C@]2(O)Cc2cccc(OC)c2)c1
81.6 µM: EKVX NSCLC
39.4 µM: SF-268 CNS
67.9 µM: T-47D breast
not listed: MCF7 breast
> 100 µM: all other assays above

From PubChem BioAssay (NCI)
